In patent US20230339937A1, “CONDENSED RING COMPOUNDS THAT INHIBIT H-PGDS” (SATO PHARMACEUTICAL CO., LTD., priority 2020, published 2023):

Target: T1, Recombinant human H-PGDS (Homo sapiens, UniProt O60760)
T1 construct: made in house; host or cells: E. coli
Test: H-PGDS inhibitory activity (prostaglandin D2 production from prostaglandin H2, measured by LC-MS/MS)
Format: biochemical
Details: recombinant human H-PGDS 1.0 nM expressed in E. coli; prostaglandin H2 25 μM; preincubated 15 minutes on ice, reacted on ice for 1 minute; concentration that inhibits prostaglandin D2 production by 50%
Outline: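 PGD2 formed from 25 µM prostaglandin H2 during a 1-min on-ice reaction was measured by LC-MS/MS after an FeCl2/citric acid stop. The enzyme was 1.0 nM E. coli-expressed human H-PGDS in Tris-HCl pH 8.0 buffer with MgCl2, reduced glutathione and γ-globulin, preincubated with compound for 15 min on ice. Production was normalised to DMSO controls minus the no-enzyme background.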

T1 sequence (O60760 whole entry): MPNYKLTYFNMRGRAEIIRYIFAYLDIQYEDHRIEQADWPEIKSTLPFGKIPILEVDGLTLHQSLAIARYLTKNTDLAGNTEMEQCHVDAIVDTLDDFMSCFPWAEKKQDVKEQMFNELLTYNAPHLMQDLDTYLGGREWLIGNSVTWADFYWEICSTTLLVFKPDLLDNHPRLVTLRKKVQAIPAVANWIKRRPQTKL

O=C(Nc1cccc(F)c1)c1ccc(-c2nccc3occc23)cc1 [Example 112, N-(3-fluorophenyl)-4-(furo[3,2-c]pyridin-4-yl)benzamide]
IC50: 3.4 nM

O=C(NC1CN(c2ccccn2)C1)c1ccc(-c2nccc3occc23)cc1 [Example 113, 4-(furo[3,2-c]pyridin-4-yl)-N-[1-(pyridin-2-yl)azetidin-3-yl]benzamide]
IC50: 2.5 nM

O=C(NC[C@H]1CC[C@@H](O)CC1)c1ccc(-c2nccc3occc23)cc1 [Example 114, 4-(furo[3,2-c]pyridin-4-yl)-N-[(cis-4-hydroxycyclohexyl)methyl]benzamide]
IC50: 25 nM

O=C(NC1CCN(c2ccccc2)CC1)c1ccc(-c2nccc3occc23)cc1 [Example 115, 4-(furo[3,2-c]pyridin-4-yl)-N-(1-phenylpiperidin-4-yl)benzamide]
IC50: 1.1 nM

Cc1cc(NC(=O)c2ccc(-c3nccc4occc34)cc2)ccc1S(N)(=O)=O [Example 116, 4-(furo[3,2-c]pyridin-4-yl)-N-(3-methyl-4-sulfamoylphenyl) benzamide]
IC50: 1.6 nM

Cc1cc(S(N)(=O)=O)ccc1NC(=O)c1ccc(-c2nccc3occc23)cc1 [Example 117, 4-(furo[3,2-c]pyridin-4-yl)-N-(2-methyl-4-sulfamoylphenyl) benzamide]
IC50: 12 nM

O=C(NC1CCN(c2ccccn2)CC1)c1ccc(-c2nccc3occc23)cc1 [Example 118, 4-(furo[3,2-c]pyridin-4-yl)-N-[1-(pyridin-2-yl)piperidin-4-yl]benzamide]
IC50: 0.45 nM

O=C(N[C@H]1CC[C@H](NCC(F)(F)F)CC1)c1ccc(-c2nccc3occc23)cc1 [Example 119, 4-(furo[3,2-c]pyridin-4-yl)-N-{trans-4-[(2,2,2-trifluoroethyl)amino]cyclohexyl}benzamide]
IC50: 1.3 nM

O=C(N[C@H]1CC[C@H](CO)CC1)c1ccc(-c2nccc3occc23)cc1 [Example 120, 4-(furo[3,2-c]pyridin-4-yl)-N-[trans-4-(hydroxymethyl)cyclohexyl]benzamide]
IC50: 3.3 nM

CC(O)[C@H]1CC[C@H](NC(=O)c2ccc(-c3nccc4occc34)cc2)CC1 (stereo partly drawn) [Example 121, 4-(furo[3,2-c]pyridin-4-yl)-N-[trans-4-(1-hydroxyethyl)cyclohexyl]benzamide]
IC50: 1.3 nM

CC(C)(O)C1CC2(CC(NC(=O)c3ccc(-c4nccc5occc45)cc3)C2)C1 (stereo not drawn) [Example 122, 4-(furo[3,2-c]pyridin-4-yl)-N-[6-(2-hydroxypropan-2-yl)spiro[3.3]heptan-2-yl]benzamide]
IC50: 1.3 nM

O=C(NC1CCN(c2ccncc2)CC1)c1ccc(-c2nccc3occc23)cc1 [Example 123, 4-(furo[3,2-c]pyridin-4-yl)-N-[1-(pyridin-4-yl)piperidin-4-yl]benzamide]
IC50: 1.8 nM

CC(C)(O)[C@H]1CC[C@H](NC(=O)c2ccc(-c3nccc4occc34)cc2)CC1 [Example 124, 4-(furo[3,2-c]pyridin-4-yl)-N-[trans-4-(2-hydroxypropan-2-yl)cyclohexyl]benzamide]
IC50: 1.8 nM

CC(C)(O)[C@H]1CC[C@H](NC(=O)c2ccc(-c3nccc4occc34)c(F)c2)CC1 [Example 125, 3-fluoro-4-(furo[3,2-c]pyridin-4-yl)-N-[trans-4-(2-hydroxypropan-2-yl)cyclohexyl]benzamide]
IC50: 2.2 nM

CC(C)(O)[C@H]1CC[C@H](NC(=O)c2ccc(-c3nccc4occc34)cc2F)CC1 [Example 126, 2-fluoro-4-(furo[3,2-c]pyridin-4-yl)-N-[trans-4-(2-hydroxypropan-2-yl)cyclohexyl]benzamide]
IC50: 13 nM

Cc1cc2occc2c(-c2ccc(C(=O)N[C@H]3CC[C@H](C(C)(C)O)CC3)cc2)n1 [Example 127, N-[trans-4-(2-hydroxypropan-2-yl)cyclohexyl]-4-(6-methylfuro[3,2-c]pyridin-4-yl)benzamide]
IC50: 1.6 nM

Cc1cc2c(-c3ccc(C(=O)N[C@H]4CC[C@H](C(C)(C)O)CC4)cc3)nccc2o1 [Example 128, N-[trans-4-(2-hydroxypropan-2-yl)cyclohexyl]-4-(2-methylfuro[3,2-c]pyridin-4-yl)benzamide]
IC50: 3.5 nM

Cc1cnc(-c2ccc(C(=O)N[C@H]3CC[C@H](C(C)(C)O)CC3)cc2)c2ccoc12 [Example 129, N-[trans-4-(2-hydroxypropan-2-yl)cyclohexyl]-4-(7-methylfuro[3,2-c]pyridin-4-yl)benzamide]
IC50: 2.4 nM

Cc1coc2ccnc(-c3ccc(C(=O)N[C@H]4CC[C@H](C(C)(C)O)CC4)cc3)c12 [Example 130, N-[trans-4-(2-hydroxypropan-2-yl)cyclohexyl]-4-(3-methylfuro[3,2-c]pyridin-4-yl)benzamide]
IC50: 6.8 nM

CC(C)(O)[C@H]1CC[C@H](NC(=O)c2ccc(-c3nccc4occc34)c(Cl)c2)CC1 [Example 131, 3-chloro-4-(furo[3,2-c]pyridin-4-yl)-N-[trans-4-(2-hydroxypropan-2-yl)cyclohexyl]benzamide]
IC50: 26 nM

Cc1cc(C(=O)N[C@H]2CC[C@H](C(C)(C)O)CC2)ccc1-c1nccc2occc12 [Example 132, 4-(furo[3,2-c]pyridin-4-yl)-N-[trans-4-(2-hydroxypropan-2-yl)cyclohexyl]-3-methylbenzamide]
IC50: 74 nM

CC(C)(O)[C@H]1CC[C@H](NC(=O)c2ccc(-c3nccc4occc34)c(C#N)c2)CC1 [Example 133, 3-cyano-4-(furo[3,2-c]pyridin-4-yl)-N-[trans-4-(2-hydroxypropan-2-yl)cyclohexyl]benzamide]
IC50: 16 nM

CC(C)(O)[C@H]1CC[C@H](NC(=O)c2ccc(-c3nccc4occc34)c(O)c2)CC1 [Example 134, 4-(furo[3,2-c]pyridin-4-yl)-3-hydroxy-N-[trans-4-(2-hydroxypropan-2-yl)cyclohexyl]benzamide]
IC50: 6.6 nM

CC(C)(O)[C@H]1CC[C@H](NC(=O)c2ccc(-c3ncc(CO)c4occc34)cc2)CC1 [Example 135, 4-[7-(hydroxymethyl)furo[3,2-c]pyridin-4-yl]-N-[trans-4-(2-hydroxypropan-2-yl)cyclohexyl]benzamide]
IC50: 14 nM

CC(C)(O)[C@H]1CC[C@H](NC(=O)c2ccc(-c3ncc(F)c4occc34)cc2)CC1 [Example 136, 4-(7-fluorofuro[3,2-c]pyridin-4-yl)-N-[trans-4-(2-hydroxypropan-2-yl)cyclohexyl]benzamide]
IC50: 9 nM

C=Cc1cnc(-c2ccc(C(=O)N[C@H]3CC[C@H](C(C)(C)O)CC3)cc2)c2ccoc12 [Example 137, N-[trans-4-(2-hydroxypropan-2-yl)cyclohexyl]-4-(7-vinylfuro[3,2-c]pyridin-4-yl)benzamide]
IC50: 12 nM

CCc1cnc(-c2ccc(C(=O)N[C@H]3CC[C@H](C(C)(C)O)CC3)cc2)c2ccoc12 [Example 138, 4-(7-ethylfuro[3,2-c]pyridin-4-yl)-N-[trans-4-(2-hydroxypropan-2-yl)cyclohexyl]benzamide]
IC50: 15 nM

CC(C)(O)[C@H]1CC[C@H](NC(=O)c2ccc(-c3ncc(C#N)c4occc34)cc2)CC1 [Example 139, 4-(7-cyanofuro[3,2-c]pyridin-4-yl)-N-[trans-4-(2-hydroxypropan-2-yl)cyclohexyl]benzamide]
IC50: 251 nM

CC(C)(O)[C@H]1CC[C@H](NC(=O)c2ccc(-c3ncc(C(N)=O)c4occc34)cc2)CC1 [Example 140, 4-(4-([trans-4-(2-hydroxypropan-2-yl)cyclohexyl]carbamoyl)phenyl)furo[3,2-c]pyridine-7-carboxamide]
IC50: 224 nM

CC(O)c1cnc(-c2ccc(C(=O)N[C@H]3CC[C@H](C(C)(C)O)CC3)cc2)c2ccoc12 (stereo partly drawn) [Example 141, 4-[7-(1-hydroxyethyl)furo[3,2-c]pyridin-4-yl]-N-[trans-4-(2-hydroxypropan-2-yl)cyclohexyl]benzamide]
IC50: 160 nM

O=C(NC1CCNCC1)c1ccc(-c2nccc3occc23)cc1 [Example 142, 4-(furo[3,2-c]pyridin-4-yl)-N-(piperidin-4-yl)benzamide]
IC50: 3.4 nM

O=C(NC1CCN(c2ncccn2)CC1)c1ccc(-c2nccc3occc23)cc1 [Example 143, 4-(furo[3,2-c]pyridin-4-yl)-N-[1-(pyrimidin-2-yl)piperidin-4-yl]benzamide]
IC50: 0.78 nM

O=C(NC1CCN(c2ncccc2F)CC1)c1ccc(-c2nccc3occc23)cc1 [Example 144, N-[1-(3-fluoropyridin-2-yl)piperidin-4-yl]-4-(furo[3,2-c]pyridin-4-yl)benzamide]
IC50: 1.5 nM

O=C(NC1CCN(c2cnccn2)CC1)c1ccc(-c2nccc3occc23)cc1 [Example 145, 4-(furo[3,2-c]pyridin-4-yl)-N-[1-(pyrazin-2-yl)piperidin-4-yl]benzamide]
IC50: 1.2 nM

O=C(NC1CCN(c2cc(Cl)ncn2)CC1)c1ccc(-c2nccc3occc23)cc1 [Example 146, N-[1-(6-chloropyrimidin-4-yl)piperidin-4-yl]-4-(furo[3,2-c]pyridin-4-yl)benzamide]
IC50: 1 nM

O=C(NC1CCN(c2cccc(F)n2)CC1)c1ccc(-c2nccc3occc23)cc1 [Example 147, N-[1-(6-fluoropyridin-2-yl)piperidin-4-yl]-4-(furo[3,2-c]pyridin-4-yl)benzamide]
IC50: 1 nM

O=C(NC1CCN(c2ccc(Cl)nn2)CC1)c1ccc(-c2nccc3occc23)cc1 [Example 148, N-[1-(6-chloropyridazin-3-yl)piperidin-4-yl]-4-(furo[3,2-c]pyridin-4-yl)benzamide]
IC50: 1.8 nM

O=C(NC1CCN(c2ccc(F)cn2)CC1)c1ccc(-c2nccc3occc23)cc1 [Example 149, N-[1-(5-fluoropyridin-2-yl)piperidin-4-yl]-4-(furo[3,2-c]pyridin-4-yl)benzamide]
IC50: 1.8 nM

Cc1ccnc(N2CCC(NC(=O)c3ccc(-c4nccc5occc45)cc3)CC2)c1 [Example 150, 4-(furo[3,2-c]pyridin-4-yl)-N-[1-(4-methylpyridin-2-yl)piperidin-4-yl]benzamide]
IC50: 1.7 nM
